In the NIST ThermoML archive (doi:10.1016/j.jct.2016.08.038):
± gives the expanded uncertainty stated by the source.

Columns and labels:
[1] = for surface tension liquid-gas: Drop volume; for electrical conductivity / speed of sound: 100 kPa; for electrical conductivity: Frequency=0.001 MHz, Alternating current cell with electrodes; for surface tension liquid-gas / electrical conductivity / speed of sound / kinematic viscosity / mass density: Liquid; for speed of sound: Frequency=3 MHz, Sing-around technique in a fixed-path interferometer; for kinematic viscosity / mass density: 101.33 kPa; for kinematic viscosity: Capillary tube (Ostwald / Ubbelohde) method; for mass density: Vibrating tube method
[2] = Molar enthalpy of transition or fusion; conditions: DSC
[3] = refractive index (Na D-line) (dimensionless); conditions: 101.33 kPa, Standard Abbe refractometry, Liquid
[4] = molar heat capacity at constant pressure; conditions: 101.33 kPa, Small sample (50 mg) DSC, Liquid

CC[n+]1ccccc1.O=S(=O)([O-])C(F)(F)F [1-ethylpyridinium triflate]
Conditions	Molar enthalpy of transition or fusion [kcal/mol]	Normal melting temperature [°C]	Triple point temperature [K]	electrical conductivity [S/m]	kinematic viscosity [m2/s]	mass density [kg/m3]	molar heat capacity at constant pressure [J/K/mol]	refractive index	speed of sound [m/s]	surface tension liquid-gas [mN/m]
[1], 323.15 K	–	–	–	–	–	–	–	–	–	41.31 ± 0.49
[1], 325.65 K	–	–	–	1.3 ± 0.026	1.96e-05 ± 4.1e-07	1382.5 ± 1.1	–	–	1427.4 ± 2.8	41.22 ± 0.49
[1], 328.15 K	–	–	–	1.39 ± 0.028	1.82e-05 ± 3.8e-07	1380.47 ± 1.1	–	–	1421.9 ± 2.8	41.16 ± 0.49
[1], 330.65 K	–	–	–	1.47 ± 0.029	1.69e-05 ± 3.5e-07	1378.45 ± 1.1	–	–	1416.1 ± 2.7	41.07 ± 0.49
[1], 333.15 K	–	–	–	1.59 ± 0.032	1.57e-05 ± 3.3e-07	1376.42 ± 1.1	–	–	1410.6 ± 2.7	40.95 ± 0.49
[1], 335.65 K	–	–	–	1.68 ± 0.034	1.46e-05 ± 3.1e-07	1374.41 ± 1.1	–	–	1405.1 ± 2.7	40.88 ± 0.49
[1], 338.15 K	–	–	–	1.78 ± 0.036	1.36e-05 ± 2.9e-07	1372.35 ± 1.1	–	–	1399.7 ± 2.7	40.76 ± 0.49
[1], Crystal 1, DTA	–	16 ± 1	–	–	–	–	–	–	–	–
[1], Crystal 2, DSC	–	–	260.4 ± 1.2	–	–	–	–	–	–	–
[2], Crystal 1	2.75 ± 0.0717	–	–	–	–	–	–	–	–	–
[2], Crystal 2	0.167 ± 0.0239	–	–	–	–	–	–	–	–	–
[3], 293.15 K	–	–	–	–	–	–	–	1.46039 ± 0.00037	–	–
[3], 295.65 K	–	–	–	–	–	–	–	1.45969 ± 0.00037	–	–
[3], 298.15 K	–	–	–	–	–	–	–	1.45898 ± 0.00037	–	–
[3], 300.65 K	–	–	–	–	–	–	–	1.4583 ± 0.00037	–	–
[3], 303.15 K	–	–	–	–	–	–	–	1.45759 ± 0.00037	–	–
[3], 305.65 K	–	–	–	–	–	–	–	1.45689 ± 0.00037	–	–
[3], 308.15 K	–	–	–	–	–	–	–	1.45619 ± 0.00037	–	–
[3], 310.65 K	–	–	–	–	–	–	–	1.4555 ± 0.00037	–	–
[3], 313.15 K	–	–	–	–	–	–	–	1.45484 ± 0.00037	–	–
[3], 315.65 K	–	–	–	–	–	–	–	1.45415 ± 0.00037	–	–
[3], 318.15 K	–	–	–	–	–	–	–	1.45345 ± 0.00037	–	–
[3], 320.65 K	–	–	–	–	–	–	–	1.45276 ± 0.00037	–	–
[3], 323.15 K	–	–	–	–	–	–	–	1.45206 ± 0.00037	–	–
[3], 325.65 K	–	–	–	–	–	–	–	1.45134 ± 0.00037	–	–
[3], 328.15 K	–	–	–	–	–	–	–	1.45064 ± 0.00037	–	–
[3], 330.65 K	–	–	–	–	–	–	–	1.44995 ± 0.00037	–	–
[3], 333.15 K	–	–	–	–	–	–	–	1.44927 ± 0.00037	–	–
[3], 335.65 K	–	–	–	–	–	–	–	1.44859 ± 0.00037	–	–
[3], 338.15 K	–	–	–	–	–	–	–	1.44789 ± 0.00037	–	–
[4], 293.15 K	–	–	–	–	–	–	348.4 ± 12	–	–	–
[4], 295.65 K	–	–	–	–	–	–	350.2 ± 12	–	–	–
[4], 298.15 K	–	–	–	–	–	–	351.8 ± 12	–	–	–
[4], 300.65 K	–	–	–	–	–	–	353.6 ± 12	–	–	–
[4], 303.15 K	–	–	–	–	–	–	355.3 ± 12	–	–	–
[4], 305.65 K	–	–	–	–	–	–	357.1 ± 12	–	–	–
[4], 308.15 K	–	–	–	–	–	–	358.7 ± 12	–	–	–
[4], 310.65 K	–	–	–	–	–	–	360.5 ± 12	–	–	–
[4], 313.15 K	–	–	–	–	–	–	362.1 ± 12	–	–	–
[4], 315.65 K	–	–	–	–	–	–	363.8 ± 12	–	–	–
[4], 318.15 K	–	–	–	–	–	–	365.4 ± 12	–	–	–
[4], 320.65 K	–	–	–	–	–	–	367 ± 12	–	–	–
[4], 323.15 K	–	–	–	–	–	–	368.7 ± 12	–	–	–
[4], 325.65 K	–	–	–	–	–	–	370.3 ± 12	–	–	–
[4], 328.15 K	–	–	–	–	–	–	371.8 ± 12	–	–	–
[4], 330.65 K	–	–	–	–	–	–	373.5 ± 12	–	–	–
[4], 333.15 K	–	–	–	–	–	–	375.2 ± 12	–	–	–
[4], 335.65 K	–	–	–	–	–	–	376.9 ± 12	–	–	–
[4], 338.15 K	–	–	–	–	–	–	378.6 ± 13	–	–	–
